Measurements: patent US7282215B2, “Supports for photosensitizer formulations” (The University of British Columbia, priority 2000, dated 2007)
Marks after values point to notes of the source that are not given here.

What was measured:
[1] = Drug loading attainable in 10% P123 (summary); format: physicochemical
Procedure: In the Example section below, formulation of the following A-ring compounds: BPD-MA, A-EA6, A-B3; B-ring compounds; B-EA6, and B-B3; and other photosensitizers such as dihydroxychlorins and pyropheophorbides, with P123 illustrate the versatility of this particular block copolymer. This includes A-ring compounds such as BPD-MA where block copolymers could be used to formulate an alternative product to a concentration as high as 4 mg/ml in 10% P123, and also A-EA6 and A-B3, all of which formulate very readily. B-ring compounds have lower drug loading characteristics, but concentrations of approximately 1.8 mg/ml are typical for B-B3, and lower for B-EA6. A wide range of other compounds e.g. pyropheophorbides and various dihydroxychlorins also formulate with ease to give final formulations at 2 mg/ml in 10% P123 in non-optimized systems. Therefore both the drug loading, and stability could be improved further by adjustments to composition, pH, and/or methodology of formulation.

L1210 cells [2] = test: In vitro cellular uptake of photosensitizer formulations; format: cell-based; conditions: 3 μg/ml, DMEM 10% FBS, B-B3 in P123 copolymer, BPD-MA liposomal
Procedure: The protocol for setting up the cell cultures and conditions for the cellular assay essentially followed Richter et al. (Proc. SPIE, 2078: 293-304, September 1993). L1210 cells in DMEM and 10% FBS (single experiment, 3 sets) were incubated with the formulations at a concentration of 3 μg/ml and examined for uptake in the cells over time. Cells were recovered by centrifugation, the pellet briefly rinsed, and the cells lysed by freeze thawing in the presence of 2% Triton X-100®. An equal volume of methanol was added and fluorescence was read at 694 nm (λex 440 nm).

[3] = Drug loading of liposomal versus 10% P123 formulations; format: physicochemical; conditions: prepared at 2 mg/ml
Procedure: 5 mg drug and lipids (40% EPG in DMPC) are combined in CH2Cl2 at a drug to lipid ratio of 1:10 w/w in 250 ml round bottom flask. The maximum concentration of drug in solvent is 2 mg/ml. CH2Cl2 is removed rapidly as described in Example 5. The resulting thin film is hydrated with 2.5 ml lactose solution (9.5% w/v) using hand swirling with glass beads at 40° C. Extrusion using Model 4T (Lipex Biomembranes Inc. B.C., Canada) is carried out with the thermostat set at 40° C. The multilamellar vesicles (MLVs) arising from hydration steps of the liposomal formulation were also examined under the microscope. MLVs are successively extruded 5 times through each of the 400 nm, 200 nm and 100 nm polycarbonate membranes (Nuclepore PC, Costar). Extruded samples were diluted 1:100 in PBS (pH 7.4) and the absorbance determined at 690 nm wavelength.
In this experiment liposomal and block copolymer (micellar) photosensitizer formulations of A- and B-ring compounds of EA6 and B3 were compared. Each of the photosensitizer samples was prepared at a final drug concentration of 2 mg/ml. The block copolymer P123, and the liposomal formulations were prepared as described in the Examples 5 and 6, respectively.

L1210 cells [4] = test: In vitro phototoxicity (MTT assay after light exposure); format: cell-based
Procedure: Exposure to drugs was carried out in the presence and absence of fetal calf serum (FCS) as a model to study transfer of drug to cells in vivo. […] A suspension of L1210 cells was prepared and exposed to various drug formulations (drug concentrations ranging from 0-50 ng/ml) either in the absence or presence of 10% fetal calf serum (FCS). One hour later, the drug was removed by pelleting the cells by centrifugation. The pellet was briefly washed with 1 ml DME and resuspended in 5% FCS/DME. 100 μl of the cell suspension was aliquoted into 6 wells of a 96 well plate, and the plate exposed to light at 10 J/cm^2. Viability was determined 24 h post exposure using the MTT assay (Mosmann, J. Immunol. Meth. 65:55-63, 1983).

[5] = test system: M1 rhabdomyosarcoma tumor; test: PDT tumor recurrence in tumor mouse model; format: in vivo, DBA/2 mouse
Procedure: Photosensitizer formulations were prepared in 10% w/v Pluronics as described in Example 4. BPD-MA was formulated in F127. B-ring compounds B-EA6 and B-B3, were prepared in P123 due to insufficient drug loading in F127. Liposomal BPD-MA formulation was Verteporfin™ and B-ring compounds were formulated in the same lipid composition. Where DMSO/plasma preparations were made, the DMSO dissolved drug was added directly to mouse plasma and the drug association with different plasma components was observed.
In these experiments the tumor model used was the DBA/2 mouse (males) inoculated intradermally with M1 rhabdomyosarcoma tumor cells (M1, ATCC. When tumors reached a diameter of 4-6 mm, the mice (n=10, unless other wise stated) were treated with photodynamic therapy (PDT). PDT involved intravenous injection of the formulated drug in 0.2 mL volume of PBS. This was followed by exposure of the tumor region to laser light (Argon pumped dye laser (5W), 690 nm, 50J/cm2) 15 min later. Animals were then monitored for tumor recurrence over a 20 day period post treatment.

[6] = BPD-MA/F127 deposited on lactose: hydration and 0.2 μm filtration; format: physicochemical; conditions: 5% w/v and 10% w/v F127 deposited on lactose, hydrated in water
Procedure: In this experiment the deposition of the photosensitizer BPD-MA with the block copolymer Pluronic® F127 onto the sugar lactose was examined. Formulations containing 5% (w/v) and a 10% (w/v) F127 were tested. 0.5 g lactose and 10 mg BPD-MA were added to two rotary evaporation flasks. A stock solution of […] F127 was prepared in CH2Cl2. 1.25 ml (for 5% w/v) and 2.5 ml (for 10% w/v) F127 stock solution was added to each flask. The final volume in each flask was made up to 5.0 ml with CH2Cl2 and the components mixed to ensure complete dissolution. The solvent was removed by rotary evaporation at 50° C., and the flask left under vacuum for a further 15 min at 23° C. Micro-thin film deposits were scraped from the walls and hydrated in 5 ml water at 50° C. The formulations were filtered twice using 0.2 μm syringe filters (Acrodisc, polysulphone).

[7] = Carrier Liposomal, −FCS, 1 h drug, light 10 J/cm^2, MTT 24 h
[8] = Liposomal, 1.0 mg/kg i.v., 690 nm 50J/cm2 15 min later, Day 7

C=Cc1c(C)c2cc3nc(cc4[nH]c(cc5nc(cc1[nH]2)C1(C)C5=CC=C(C(=O)O)C1C(=O)OC)c(C)c4CCC(=O)OC)C(CCC(=O)OC)=C3C (stereo not shown) [B-B3]
Formulated drug concentration [1]: approximately 1.8 mg/ml | Incubation time to 50% uptake level (L1210 cells [2]): close to ‘zero’ incubation time | Incubation time to peak / saturation of uptake (L1210 cells [2]): around 20 min | Drug loading, P123 ([3]; Pluronic P123 10% weight/volume): 1.24 mg/mL | Drug loading, Liposome ([3]; liposomal formulation): Very low | LD50 (L1210 cells [4]; Carrier Copolymer (P123), +FCS (10%)): 16.6* ng/ml | LD50 (L1210 cells [4]; Carrier Copolymer (P123), −FCS): 0.68* ng/ml | LD50 (L1210 cells [4]; Carrier DMSO, +FCS (10%)): 37.0 ng/mL | LD50 (L1210 cells [4]; Carrier DMSO, −FCS): 7.2 ng/mL | LD50 (L1210 cells [4]; Carrier Liposomal, +FCS (10%)): 30.0 ng/mL | LD50 (L1210 cells [4]; [7]): 3.0 ng/mL | Percent (%) Mice Tumor Free [5, 8]: 0^2% | Percent (%) Mice Tumor Free ([5]; Pluronic P123, 1.0 mg/kg, Day 7): 100% | Percent (%) Mice Tumor Free ([5]; Pluronic P123, 1.0 mg/kg, Day 14): 80% | Percent (%) Mice Tumor Free ([5]; Pluronic P123, 1.0 mg/kg, Day 20): 60% | Percent (%) Mice Tumor Free ([5]; Pluronic P123, 1.2 mg/kg, Day 7, n = 3): 100^3% | Percent (%) Mice Tumor Free ([5]; Pluronic P123, 1.2 mg/kg, Day 14, n = 3): 67^3% | Percent (%) Mice Tumor Free ([5]; Pluronic P123, 1.2 mg/kg, Day 20, n = 3): 67^3% | Percent (%) Mice Tumor Free ([5]; Pluronic P123, 1.25 mg/kg, Day 7): 100% | Percent (%) Mice Tumor Free ([5]; Pluronic P123, 1.25 mg/kg, Day 14): 100% | Percent (%) Mice Tumor Free ([5]; Pluronic P123, 1.25 mg/kg, Day 20): 80% | PDT efficacy in tumor model ([5]; plasma /DMSO preparation): completely ineffective

C=Cc1c(C)c2cc3nc(cc4[nH]c(cc5nc(cc1[nH]2)C(C)=C5CCC(=O)O)c(CCC(=O)OC)c4C)[C@@]1(C)C3=CC=C(C(=O)OC)[C@H]1C(=O)OC [BPD-MA, benzoporphyrin derivative mono-acid-ring A, reference compound]
Formulated drug concentration [1]: ≤ 4 mg/mL | Drug loss on filtration through 0.2 μm filters [6]: no drug loss | Incubation time to 50% uptake level (L1210 cells [2]): approximately 5 min | Incubation time to peak / saturation of uptake (L1210 cells [2]): 30 min | LD50 (L1210 cells [4]; Carrier Liposomal, +FCS (10%)): 38.0 ng/mL | LD50 (L1210 cells [4]; [7]): 4.0 ng/mL | Percent (%) Mice Tumor Free [5, 8]: 100% | Percent (%) Mice Tumor Free ([5]; Liposomal, 1.0 mg/kg, Day 14): 100% | Percent (%) Mice Tumor Free ([5]; Liposomal, 1.0 mg/kg, Day 20): 30% | Percent (%) Mice Tumor Free ([5]; Pluronic F127, 1.0 mg/kg, Day 7): 100% | Percent (%) Mice Tumor Free ([5]; Pluronic F127, 1.0 mg/kg, Day 14): 60% | Percent (%) Mice Tumor Free ([5]; Pluronic F127, 1.0 mg/kg, Day 20): 60%
